Laboratory results from ChEMBL document CHEMBL1201862, “PubChem BioAssay data set” (2004).
One block for each molecule: values may come before it. Calls of active or inactive are those of the source.

Key:
[1] = target: Glucose-6-phosphate 1-dehydrogenase (Homo sapiens, UniProt P11413); assay: inhibition of Homo sapiens G6PD, dose series – biochemical, fluorescence, selectivity assay for P. falciparum G6PD inhibitor project, dose response (AID 504792); assay type: functional
ORF 73 = target: T1, ORF 73 (Human herpesvirus 8, UniProt O40947); assay: KSHV LANA DNA-binding disruption – biochemical, fluorescence polarization, cherry-picked samples, dose response (AID 504725); parameters: species or system Human gammaherpesvirus 8;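 also: fluorescence polarization of a labeled DNA duplex reporting LANA DNA binding; potency is for inhibitors that block LANA binding to the DNA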
T1 sequence (O40947 whole entry): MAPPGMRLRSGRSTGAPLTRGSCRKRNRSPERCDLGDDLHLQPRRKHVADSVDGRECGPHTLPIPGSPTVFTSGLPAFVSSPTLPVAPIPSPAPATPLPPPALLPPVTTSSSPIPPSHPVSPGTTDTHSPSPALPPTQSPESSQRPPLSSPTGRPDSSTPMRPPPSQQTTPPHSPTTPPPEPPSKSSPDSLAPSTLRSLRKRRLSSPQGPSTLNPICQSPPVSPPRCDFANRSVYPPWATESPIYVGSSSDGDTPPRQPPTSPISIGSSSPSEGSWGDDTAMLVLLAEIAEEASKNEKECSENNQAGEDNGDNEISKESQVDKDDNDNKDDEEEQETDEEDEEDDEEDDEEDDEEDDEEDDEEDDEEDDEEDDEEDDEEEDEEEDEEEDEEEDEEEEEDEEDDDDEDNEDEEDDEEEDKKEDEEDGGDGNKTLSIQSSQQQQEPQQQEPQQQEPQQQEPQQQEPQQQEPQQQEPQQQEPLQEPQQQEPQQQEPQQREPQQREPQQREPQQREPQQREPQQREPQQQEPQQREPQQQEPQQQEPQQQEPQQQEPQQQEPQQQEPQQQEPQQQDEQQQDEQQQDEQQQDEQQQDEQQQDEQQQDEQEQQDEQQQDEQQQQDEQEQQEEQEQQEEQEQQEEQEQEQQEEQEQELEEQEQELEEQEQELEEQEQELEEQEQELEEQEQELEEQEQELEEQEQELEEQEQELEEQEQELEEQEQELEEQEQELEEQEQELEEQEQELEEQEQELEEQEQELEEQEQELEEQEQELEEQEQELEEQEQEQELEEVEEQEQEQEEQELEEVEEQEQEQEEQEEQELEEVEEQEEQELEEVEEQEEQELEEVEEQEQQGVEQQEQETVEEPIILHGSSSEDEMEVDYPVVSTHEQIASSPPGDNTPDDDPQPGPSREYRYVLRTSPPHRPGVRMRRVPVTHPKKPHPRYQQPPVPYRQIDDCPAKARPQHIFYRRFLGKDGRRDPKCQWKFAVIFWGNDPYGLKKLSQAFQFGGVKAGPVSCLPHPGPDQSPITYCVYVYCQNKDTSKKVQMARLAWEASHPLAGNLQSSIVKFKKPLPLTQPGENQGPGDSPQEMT

[2] = target: Voltage-gated N-type calcium channel alpha-1B subunit/Amyloid beta A4 precursor protein-binding family A member 1 (Homo sapiens, UniProt Q00975+Q02410); assay type: protein assay
[3] = target: T2, Alkaline phosphatase, tissue-nonspecific isozyme (Homo sapiens, UniProt P05186); assay: TNAP enzyme inhibition by screening hits, dose response, selectivity assay for mouse IAP inhibitor project, biochemical, human TNAP, uHTS hits (AID 488906); assay type: functional
T2 sequence (P05186 whole entry): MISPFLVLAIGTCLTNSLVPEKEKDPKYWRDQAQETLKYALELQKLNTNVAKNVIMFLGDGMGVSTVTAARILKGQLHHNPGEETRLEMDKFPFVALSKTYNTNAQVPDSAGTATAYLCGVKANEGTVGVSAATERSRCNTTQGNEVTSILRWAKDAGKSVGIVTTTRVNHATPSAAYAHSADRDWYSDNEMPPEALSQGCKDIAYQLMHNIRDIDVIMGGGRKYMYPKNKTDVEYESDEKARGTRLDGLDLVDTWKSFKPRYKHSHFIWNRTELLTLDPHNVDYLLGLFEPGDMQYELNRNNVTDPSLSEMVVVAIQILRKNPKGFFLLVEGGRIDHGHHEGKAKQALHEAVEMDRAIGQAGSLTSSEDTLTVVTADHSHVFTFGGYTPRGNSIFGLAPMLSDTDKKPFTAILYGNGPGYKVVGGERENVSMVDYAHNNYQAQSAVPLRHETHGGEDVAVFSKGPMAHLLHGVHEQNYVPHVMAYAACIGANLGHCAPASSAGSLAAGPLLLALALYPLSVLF

[4] = target: Histone-lysine N-methyltransferase NSD2 (Homo sapiens, UniProt O96028); assay type: biochemical
Procathepsin L = Procathepsin L (Homo sapiens, UniProt P07711)
[5] = NIH-3T3 fibroblast cytotoxicity, dose response, cytotoxicity control, cell-based, fluorescence, Alamar Blue, secondary assay (AID 2327); assay type: functional;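 also: NIH-3T3 mouse fibroblasts cultured with fluconazole at 8 µg/mL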
[6] = fluconazole-exposed Candida albicans growth modulators – fluorescence, retest, confirmation (AID 2467); assay type: functional, cell-based
Aspartyl aminopeptidase = target: T3, Aspartyl aminopeptidase (Plasmodium falciparum 3D7, UniProt Q8I2J3)
T3 sequence (Q8I2J3 whole entry): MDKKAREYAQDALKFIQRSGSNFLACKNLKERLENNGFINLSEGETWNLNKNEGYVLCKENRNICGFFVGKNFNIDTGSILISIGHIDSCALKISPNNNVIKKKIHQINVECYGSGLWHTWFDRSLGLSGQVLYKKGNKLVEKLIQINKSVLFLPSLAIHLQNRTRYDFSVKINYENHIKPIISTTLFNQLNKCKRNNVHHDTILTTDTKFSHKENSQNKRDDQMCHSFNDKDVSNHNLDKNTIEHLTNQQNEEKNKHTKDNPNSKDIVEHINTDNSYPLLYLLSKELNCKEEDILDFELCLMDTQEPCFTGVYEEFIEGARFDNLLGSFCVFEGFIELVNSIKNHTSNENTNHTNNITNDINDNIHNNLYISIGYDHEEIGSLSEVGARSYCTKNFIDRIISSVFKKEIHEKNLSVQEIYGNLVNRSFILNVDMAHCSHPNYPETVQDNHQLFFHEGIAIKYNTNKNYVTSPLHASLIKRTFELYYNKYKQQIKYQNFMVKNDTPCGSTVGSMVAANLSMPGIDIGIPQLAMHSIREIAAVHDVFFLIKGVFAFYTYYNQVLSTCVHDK

[7] = toxicity toward HepG2 liver cells – cell-based, plate reader, cherry-pick, antagonist series, cytotoxicity control, dose response (AID 743416); assay type: functional

Chain of Procathepsin L (P07711 whole entry): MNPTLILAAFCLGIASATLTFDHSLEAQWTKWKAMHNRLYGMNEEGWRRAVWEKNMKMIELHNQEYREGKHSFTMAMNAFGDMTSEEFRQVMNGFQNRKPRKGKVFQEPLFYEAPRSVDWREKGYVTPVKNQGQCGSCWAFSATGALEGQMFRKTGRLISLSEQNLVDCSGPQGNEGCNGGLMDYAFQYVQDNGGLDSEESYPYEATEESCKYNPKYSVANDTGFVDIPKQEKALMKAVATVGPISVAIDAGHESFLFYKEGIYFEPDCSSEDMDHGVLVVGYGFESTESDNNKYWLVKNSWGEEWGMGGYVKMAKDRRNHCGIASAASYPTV
Chain of Glucose-6-phosphate 1-dehydrogenase (P11413 whole entry): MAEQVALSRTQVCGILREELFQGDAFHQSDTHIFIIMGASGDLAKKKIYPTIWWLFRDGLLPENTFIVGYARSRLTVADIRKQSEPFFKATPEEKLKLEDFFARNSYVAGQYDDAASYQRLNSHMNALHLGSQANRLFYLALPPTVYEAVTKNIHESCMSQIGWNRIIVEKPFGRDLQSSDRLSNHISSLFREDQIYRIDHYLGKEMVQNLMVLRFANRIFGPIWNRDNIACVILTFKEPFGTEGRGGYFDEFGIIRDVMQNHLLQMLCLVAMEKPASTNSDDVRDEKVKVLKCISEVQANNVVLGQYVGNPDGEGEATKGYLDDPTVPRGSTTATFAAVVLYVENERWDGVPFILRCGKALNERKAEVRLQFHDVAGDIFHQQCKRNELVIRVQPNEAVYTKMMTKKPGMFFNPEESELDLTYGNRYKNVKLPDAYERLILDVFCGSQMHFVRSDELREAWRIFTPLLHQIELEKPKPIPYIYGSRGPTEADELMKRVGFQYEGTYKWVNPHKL
Chain of Histone-lysine N-methyltransferase NSD2 (O96028 whole entry): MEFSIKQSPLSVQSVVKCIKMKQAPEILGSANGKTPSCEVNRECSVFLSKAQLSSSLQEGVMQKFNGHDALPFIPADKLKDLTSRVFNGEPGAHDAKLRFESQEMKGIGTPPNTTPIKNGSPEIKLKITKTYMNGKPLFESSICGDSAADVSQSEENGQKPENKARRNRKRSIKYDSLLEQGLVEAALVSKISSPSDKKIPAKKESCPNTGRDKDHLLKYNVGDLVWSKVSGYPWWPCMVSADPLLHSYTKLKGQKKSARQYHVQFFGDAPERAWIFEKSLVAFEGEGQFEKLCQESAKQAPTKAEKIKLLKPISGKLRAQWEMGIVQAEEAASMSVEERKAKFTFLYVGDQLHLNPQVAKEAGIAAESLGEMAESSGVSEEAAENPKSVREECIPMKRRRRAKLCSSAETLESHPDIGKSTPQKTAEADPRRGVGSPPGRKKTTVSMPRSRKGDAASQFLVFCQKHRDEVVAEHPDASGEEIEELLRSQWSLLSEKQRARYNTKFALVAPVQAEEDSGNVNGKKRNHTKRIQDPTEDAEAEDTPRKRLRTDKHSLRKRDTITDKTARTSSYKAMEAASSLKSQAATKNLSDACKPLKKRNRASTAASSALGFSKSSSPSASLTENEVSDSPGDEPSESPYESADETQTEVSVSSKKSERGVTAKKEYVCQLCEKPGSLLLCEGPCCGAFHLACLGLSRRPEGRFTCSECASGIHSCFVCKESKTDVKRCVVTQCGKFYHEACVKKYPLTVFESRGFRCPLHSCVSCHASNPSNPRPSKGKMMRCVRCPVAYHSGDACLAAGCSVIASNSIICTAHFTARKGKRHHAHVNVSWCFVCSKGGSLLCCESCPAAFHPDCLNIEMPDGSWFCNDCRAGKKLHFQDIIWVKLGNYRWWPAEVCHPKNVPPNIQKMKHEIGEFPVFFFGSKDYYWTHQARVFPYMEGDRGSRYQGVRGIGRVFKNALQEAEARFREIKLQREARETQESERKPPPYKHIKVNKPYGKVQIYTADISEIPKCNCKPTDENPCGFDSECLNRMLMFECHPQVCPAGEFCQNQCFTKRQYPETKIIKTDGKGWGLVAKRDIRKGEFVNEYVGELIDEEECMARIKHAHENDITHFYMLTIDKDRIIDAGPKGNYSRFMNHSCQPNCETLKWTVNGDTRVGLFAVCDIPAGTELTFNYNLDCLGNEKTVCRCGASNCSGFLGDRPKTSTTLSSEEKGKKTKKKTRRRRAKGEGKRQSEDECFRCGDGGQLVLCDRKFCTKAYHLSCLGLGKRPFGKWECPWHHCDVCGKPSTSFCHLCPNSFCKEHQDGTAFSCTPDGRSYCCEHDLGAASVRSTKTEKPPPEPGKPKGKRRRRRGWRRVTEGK

Compound: Cc1cc(C)c(S(=O)(=O)Nc2cc(SCC(=O)O)c(O)c3ccccc23)cc1C
IC50 [1]: 8.73 µM (active)

Compound: O=C(O)c1cc(N2N=C(C(F)(F)F)/C(=C/C=C/c3ccco3)C2=O)ccc1Cl
AC50 (ORF 73): 2.28 µM (active) | IC50 [2]: 24.6 µM (active)

IC50 [3]: 76.1 µM (active)
Compound: O=C(/C=C/c1ccco1)NC(=S)Nc1cccc(C(=O)O)c1

Compound: CNCc1ccccc1Sc1ccc(O)c(O)c1
AC50 [4]: > 20 µM (inactive) | IC50 (Procathepsin L): > 59.6 µM (not active) | EC50 [5]: > 150 µM (inactive) | EC50 [6]: > 38 µM (not active) | IC50 (Aspartyl aminopeptidase): 1.89 µM (active) | AC50 [7]: > 52 µM (inactive)
